Consider three molecules from US20240358848A1, “ANTITUMOR COMPOUND AND USE THEREOF” (priority 2021, published 2024).

Where two headings read alike, the source gives them in different places.

The test relates to KPL-4 Cells. Put plainly: Cell proliferation inhibition assay (CellTiter-Glo, 72 h). Format: cell-based. As for the experimental part: KPL-4 Cells in the logarithmic phase of growth were collected and re-suspended with fresh RPMI1640 complete cell culture medium, and adjusted to 2×10^4 cells/mL after cell counting. Cells were seeded into 96-well cell culture plates at 100 μL/well, and placed in a CO2 incubator (37° C., 5% CO2) overnight. In the next day, one of the cell culture plates were taken out, balanced to room temperature, and CellTiter-Glo reagent (Promega, USA), which was pre-balanced to room temperature and evenly mixed, was added into the plate at 100 μl/well. The plate was kept in dark for 30 min, and then luminescence value was read with a microplate reader (denoted as G0 value). The other cell culture plates were taken out and added with different concentrations of test compounds or DMSO (final concentration 0.5%) in corresponding wells. After incubated for 72 h in a CO2 incubator, the cell culture plates were balanced to room temperature and tested for cell viabilities using CellTiter-Glo reagent as described above (denoted as G3 value).
The cell proliferation rates were calculated using the following formula: Cell proliferation rate (%)=(mean of G3compound−mean of G0)/(mean of G3DMSO−mean of G0)×100.
(In general: In ATP-based viability assays light output follows the ATP content of the culture.)

Where [1] appears, read: KPL4, KPL-4, 72 h, read-out: GI50.

For `CC[C@@]1(O)C(=O)OCc2c1cc1n(c2=O)Cc2c-1nc1cc(F)c(C)c3c1c2[C@@H](NC(=O)CO)CC3` [DXd, reference compound], where the note is “KPL4, 72 h”, the GI50 (as a rule, the concentration at which growth is held to half of that of the control) stood at 72 nM. As for `CC[C@@]1(O)C(=O)OCc2c1cc1n(c2=S)Cc2c-1nc1cc(F)c(C)c3c1c2[C@@H](NC(=O)CO)CC3` [X], the GI50 under setting [1] amounted to 13.9 nM.

For the molecule `CC[C@@]1(O)C(=O)OCc2c1cc1n(c2=S)Cc2c-1nc1cc(F)c(C)c3c1c2[C@H](NC(=O)CO)CC3` [Y], the GI50 under setting [1] came to 10.3 nM.
